Reference: patent US20090264415A2 (priority 2004, published 2009)
Where two headings read alike, the source gives them in different places.

How the values were obtained:
[1] = tested on: production of human TNF-α by PBMC in response to LPS; experiment: TNF-α assay (LPS-stimulated PBMC, sandwich ELISA); assay type: cell-based
In short: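 Human PBMC isolated from heparinised blood by density gradient (10^6 cells/ml) stimulated with LPS at 1 μg/ml final, with test compound at 0.1, 1 and 10 μM, 72 h at 37° C, 5% CO2. Supernatant TNF-α quantified by sandwich ELISA against recombinant standard curve; % suppression calculated.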

[2] = tested on: peripheral blood mononuclear cells (PBMC) stimulated with allogeneic PBMC or EBV-transformed human B cells (RPMI1788); experiment: Mixed lymphocyte reaction (MLR) assay; assay type: cell-based
In short: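 Compounds, held as 10 mM DMSO stocks and diluted in culture medium, were added to PBMC stimulated by 30 Gy-irradiated allogeneic PBMC or RPMI1788 cells. Proliferation was read as [3H]-thymidine uptake (1 μCi, final 16 h) after 5 days at 37° C. Inhibition was derived from cpm.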

[3] = tested on: HCV replicon in Huh-5-2 cells; experiment: Anti-HCV assay/replicon assay (luciferase); assay type: cell-based; conditions: Hepatitis C virus
Protocol: (§1) Huh-5-2 cells [a cell line with a persistent HCV replicon I3891uc-ubi-neo/NS3-3′/5.1; replicon with firefly luciferase-ubiquitin-neomycin phosphotransferase fusion protein and EMCV-IRES driven NS3-5B HCV polyprotein] was cultured in a RPMI medium (commercially available from Gibco) supplemented with 10% fetal calf serum, 2 mM L-glutamine (commercially available from Life Technologies), 1× non-essential amino acids (commercially available from Life Technologies); 100 IU/ml penicillin, 100 μg/ml streptomycin and 250 μg/ml G418 (Geneticin, commercially available from Life Technologies). Cells were seeded at a density of 7,000 cells per well in 96 well View Plate (commercially available from Packard) in a medium containing the same components as described above, except for G418. Cells were allowed to adhere and proliferate for 24 hours. […] Luciferase activity was measured by adding 50 μl of 1×Glo-lysis buffer (commercially available from Promega) for 15 minutes followed by 50 μl of the Steady-Glo Luciferase assay reagent (commercially available from Promega). Luciferase activity was measured with a luminometer and the signal in each individual well was expressed as a percentage of the untreated cultures. […] Instead the density of the culture was measured by means of the MTS method (commercially available from Promega). […]

[4] = Cytostatic effect on Huh-5-2 cells (MTS method); assay type: cell-based; conditions: human, 50% inhibition of cell growth
Protocol: as §1

[5] = tested on: production of human IL-1β by PBMC in response to LPS; experiment: IL-1β assay (LPS-stimulated PBMC, sandwich ELISA); assay type: cell-based; conditions: LPS 1 μg/ml, 72 hours
Protocol: Peripheral blood mononuclear cells (herein referred as PBMC), in response to stimulation by lipopolysaccharide (LPS), a gram-negative bacterial endotoxin, produce various […], in particular human IL-1β. Inhibition of the activation of PBMC can therefore be measured by the level of suppression of the production of IL-1β by PBMC in response to stimulation by LPS.
Such inhibition measurement was performed as follows: PBMC were isolated from heparinized peripheral blood by density gradient centrifugation over Lymphoprep (commercially available from Nycomed, Norway). LPS was then added to the PMBC suspension in complete medium (10^6 cells/ml) at a final concentration of 1 μg/ml. The pteridine derivative to be tested was added at different concentrations (0.1 μM, 1 μM and 10 μM) and the cells were incubated at 37° C. for 72 hours in 5% CO2. The supernatants were collected, then IL-1β concentrations were measured with an anti-IL-1β antibody in a sandwich ELISA. The calorimetric reading of the ELISA was measured by a Multiskan RC plate reader (commercially available from ThermoLabsystems, Finland) at 450 nm (reference wavelength: 690 nm). Data analysis was performed with Ascent software 2.6. (also from ThermoLabsystems, Finland): a standard curve (recombinant human IL-1β) was drawn and the amount (pg/ml) of each sample on the standard curve was determined.
The % suppression of human IL-1β by the pyrido[3,2-d]pyrimidine derivatives of this invention was calculated using the formula: [formula]

[6] = tested on: phosphodiesterase-4 (PDE-4) extract from U937 cells; experiment: Phosphodiesterase-4 inhibiting activity (isotopic two-step method); assay type: biochemical; conditions: 1.01 μM [3H]cAMP+cAMP
[7] = Homo sapiens, PBMC, LPS 1 μg/ml, 72 hours, read-out: TNF α
[8] = Homo sapiens, RPMI-1788, 50% suppression of the MLR, [3H]-thymidine incorporation, read-out: MLR

IC50 [6] [nM]	Structure (SMILES)	IC50 [1, 7] [µM]	IC50 [2, 8] [nM]	CC50 at 72 h [4] [µM]	IC50 ([5]; Homo sapiens, PBMC) [µM]	other results
–	COc1ccc(-c2ccc3nc(N)nc(Nc4cccc(C)c4)c3n2)cc1OC [Example 27, 2-amino-4-(3-methyl-anilino)-6-(3,4-dimethoxyphenyl)-pyrido[3,2-d]pyrimidine]	6.4	5700	> 50	–	EC50 ([3]; Huh-5-2 replicon cells, 72 hours, read-out: EC50): 500 nM
–	COc1ccc(-c2ccc3nc(N)nc(NCc4cccs4)c3n2)cc1OC [Example 32, 2-amino-4-(thienyl-2-methylamino)-6-(3,4-dimethoxyphenyl)-pyrido[3,2-d]pyrimidine-2,4-diamine]	–	–	–	–	IC50 [5]: 6.9 µM; IC50 ([1]; LPS 1 μg/ml, 72 hours, read-out: TNF α): 0.8 µM; IC50 ([2]; 50% suppression of the MLR, [3H]-thymidine incorporation, read-out: MLR): 800 nM
–	COc1ccc(-c2ccc3nc(N)nc(N[C@H]4CC[C@H](N)CC4)c3n2)cc1OC [Example 36]	–	–	7.7	–	IC50 ([1]; Homo sapiens, PBMC, 72 h, read-out: TNF α (μM)): 2.9 µM; IC50 ([2]; Homo sapiens, RPMI-1788, read-out: MLR (μM)): 6500 nM; EC50 ([3]; Huh-5-2, 72 h): 1000 nM
410	COc1ccc(-c2ccc3nc(N)nc(N4CCOCC4)c3n2)cc1OC [Example 41, 2-amino-4-morpholino-6-(3,4-dimethoxyphenyl)-pyrido[3,2-d]pyrimidine]	0.03	37	–	7.9	–
61	COc1ccc(-c2ccc3nc(N)nc(N4CCN(C(=O)Nc5cccc(C)c5)CC4)c3n2)cc1OC [Example 42, 2-amino-4-(4-{[(3-methylphenyl)amino]carbonyl}piperazin-1-yl)-6-(3,4-dimethoxyphenyl)-pyrido[3,2-d]pyrimidine]	0.06	0.064	–	1.8	–
